Results taken from US4145554A, “3-Nitropyrazole derivatives” (Eli Lilly and Company, priority 1977, dated 1979).
Converted amounts (≈) assume the structure as drawn. Read-outs that look alike come from different tables or passages of the source.

Legend:
Experiment in all cases: in vitro tube dilution test (MIC)
Type in all cases: cell-based
[1] = system: Staphylococcus aureus sp. 1130
Excerpt: (§1) The other preferred compounds of our invention have also been thoroughly tested in the in vitro tube dilution test.
(§2) Other compounds of our invention have also been tested in the tube dilution test and shown to have in vitro activity against a number of microorganisms. The table below reports tests of a number of exemplary compounds against exemplary microorganisms. The compounds are identified by their numbers in the listing above. The data are reported as the MIC in micrograms per milliliter against the named exemplary microorganisms.

Salmonella dublin = settings: Salmonella enterica
Excerpt: as §1, §2

Vibrio coli 3811 = settings: Campylobacter coli
Excerpt: as §1, §2

Streptococcus sp. 80 = system: Streptococcus sp. 80
Excerpt: as §2

Mycoplasma gallisepticum = settings: Mycoplasmoides gallisepticum
Excerpt: (§3) Our compound, 1-(2-hydroxyethyl)-3-nitro-4-pyrazolecarboxamide, has been extensively tested in vitro to determine the range of microorganisms against which it is active. The table of data below reports the minimum inhibitory concentration (MIC) at which the compound is effective in controlling a variety of microorganisms in a standard tube dilution test system. The MIC is reported as micrograms of compound per milliliter.
as §2

Escherichia coli = system: Escherichia coli
Excerpt: as §3, §2

Pasteurella multocida = system: Pasteurella multocida
Excerpt: as §3, §1, §2

[2] = Staphylococcus aureus sp. 1130, tube dilution, read-out: MIC
[3] = Salmonella dublin, tube dilution, read-out: MIC
[4] = Vibrio coli 3811, tube dilution, read-out: MIC
[5] = Streptococcus sp. 80, tube dilution, read-out: MIC
[6] = Mycoplasma gallisepticum, tube dilution, read-out: MIC

| Compound | MIC [1, 2] | MIC (Salmonella dublin; [3]) | MIC (Vibrio coli 3811; [4]) | MIC (Streptococcus sp. 80; [5]) | MIC (Mycoplasma gallisepticum; [6]) | MIC (Escherichia coli; tube dilution, read-out: MIC) | MIC (Pasteurella multocida; tube dilution, read-out: MIC) | MIC ([1]; Staphylococcus aureus, SP.1130) | MIC (Salmonella dublin) | MIC (Vibrio coli 3811; 3811) | MIC (Streptococcus sp. 80; Streptococcus, SP.80) | MIC (Mycoplasma gallisepticum) | MIC (Escherichia coli) | MIC (Pasteurella multocida) |
| --- | --- | --- | --- | --- | --- | --- | --- | --- | --- | --- | --- | --- | --- | --- |
| C#CCn1cc(C#N)c([N+](=O)[O-])n1 [Compound 4, 1-propargyl-3-nitro-4-pyrazolecarbonitrile] | > 50 µg/mL | 50 µg/mL (≈ 284 µM) | 6.25 µg/mL (≈ 35.5 µM) | > 50 µg/mL | 50 µg/mL (≈ 284 µM) | 50 µg/mL (≈ 284 µM) | 12.5 µg/mL (≈ 71 µM) |  |  |  |  |  |  |  |
| NC(=O)c1cn(-c2ccc([N+](=O)[O-])cc2)nc1[N+](=O)[O-] [Compound 5, 3-nitro-1-(4-nitrophenyl)-4-pyrazolecarboxamide] |  |  |  |  |  |  |  | 3.12 µg/mL (≈ 11.3 µM) | > 50 µg/mL | 6.25 µg/mL (≈ 22.5 µM) | > 50 µg/mL | 25 µg/mL (≈ 90.2 µM) | > 50 µg/mL | 3.12 µg/mL (≈ 11.3 µM) |
| NC(=O)c1cn(CCN2C(=O)c3ccccc3C2=O)nc1[N+](=O)[O-] [Compound 10, 1-(2-phthalimidoethyl)-3-nitro-4-pyrazolecarboxamide] | 6.25 µg/mL (≈ 19 µM) | > 50 µg/mL | 50 µg/mL (≈ 152 µM) | 6.25 µg/mL (≈ 19 µM) | 50 µg/mL (≈ 152 µM) | 50 µg/mL (≈ 152 µM) | 25 µg/mL (≈ 75.9 µM) |  |  |  |  |  |  |  |
| Cn1cc(C#N)c([N+](=O)[O-])n1 [Compound 30, 1-methyl-3-nitro-4-pyrazolecarbonitrile] | 100 µg/mL (≈ 657 µM) | 100 µg/mL (≈ 657 µM) | 100 µg/mL (≈ 657 µM) | 100 µg/mL (≈ 657 µM) | 50 µg/mL (≈ 329 µM) | 100 µg/mL (≈ 657 µM) |  |  |  |  |  |  |  |  |
| N#Cc1cn(CC2CO2)nc1[N+](=O)[O-] (stereo not drawn) [Compound 31, 1-(2,3-epoxypropyl)-3-nitro-4-pyrazolecarbonitrile] | 50 µg/mL (≈ 258 µM) | 50 µg/mL (≈ 258 µM) | 12.5 µg/mL (≈ 64.4 µM) | 50 µg/mL (≈ 258 µM) | 50 µg/mL (≈ 258 µM) | 50 µg/mL (≈ 258 µM) |  |  |  |  |  |  |  |  |
| CCCCCCCCCn1cc(C(N)=O)c([N+](=O)[O-])n1 [Compound 48, 3-nitro-1-nonyl-4-pyrazolecarboxamide] | 25 µg/mL (≈ 88.5 µM) | > 50 µg/mL | 50 µg/mL (≈ 177 µM) | > 50 µg/mL | 50 µg/mL (≈ 177 µM) | > 50 µg/mL | 0.39 µg/mL (≈ 1.38 µM) |  |  |  |  |  |  |  |
| NC(=O)c1c[nH]nc1[N+](=O)[O-] [Compound 60, 3(5)-nitro-4-pyrazolecarboxamide] | > 50 µg/mL | > 50 µg/mL | > 50 µg/mL | > 50 µg/mL | 50 µg/mL (≈ 320 µM) | > 50 µg/mL | 25 µg/mL (≈ 160 µM) |  |  |  |  |  |  |  |
| CCOC(Cn1cc(C#N)c([N+](=O)[O-])n1)OCC [Compound 67, 1-(2,2-diethoxyethyl)-3-nitro-4-pyrazolecarbonitrile] | 50 µg/mL (≈ 197 µM) | 50 µg/mL (≈ 197 µM) | 50 µg/mL (≈ 197 µM) | 50 µg/mL (≈ 197 µM) | 50 µg/mL (≈ 197 µM) | 50 µg/mL (≈ 197 µM) | 25 µg/mL (≈ 98.3 µM) |  |  |  |  |  |  |  |
| N#Cc1cn(-c2ncc([N+](=O)[O-])s2)nc1[N+](=O)[O-] [Compound 68, 3-nitro-1-(5-nitro-2-thiazolyl)-4-pyrazolecarbonitrile] |  |  |  |  |  |  |  | 25 µg/mL (≈ 93.9 µM) | 50 µg/mL (≈ 188 µM) | 12.5 µg/mL (≈ 47 µM) | 50 µg/mL (≈ 188 µM) | 25 µg/mL (≈ 93.9 µM) | 50 µg/mL (≈ 188 µM) | 12.5 µg/mL (≈ 47 µM) |
| N#Cc1cn(Cc2ccccc2)nc1[N+](=O)[O-] [Compound 70, 1-benzyl-3-nitro-4-pyrazolecarbonitrile] | 100 µg/mL (≈ 438 µM) | 100 µg/mL (≈ 438 µM) | 12.5 µg/mL (≈ 54.8 µM) | 100 µg/mL (≈ 438 µM) | > 50 µg/mL | 100 µg/mL (≈ 438 µM) |  |  |  |  |  |  |  |  |
| CCSCCn1cc(C#N)c([N+](=O)[O-])n1 [Compound 72, 1-(2-ethylthioethyl)-3-nitro-4-pyrazolecarbonitrile] | > 50 µg/mL | > 50 µg/mL | > 50 µg/mL | > 50 µg/mL | > 50 µg/mL | > 50 µg/mL | > 50 µg/mL |  |  |  |  |  |  |  |
| N#CCCn1cc(C#N)c([N+](=O)[O-])n1 [Compound 73, 4-cyano-3-nitro-1-pyrazolepropionitrile] | 50 µg/mL (≈ 262 µM) | 50 µg/mL (≈ 262 µM) | 25 µg/mL (≈ 131 µM) | 50 µg/mL (≈ 262 µM) | 50 µg/mL (≈ 262 µM) | 50 µg/mL (≈ 262 µM) | 12.5 µg/mL (≈ 65.4 µM) |  |  |  |  |  |  |  |
| Cn1cc(C(=O)NN=Cc2ccc([N+](=O)[O-])o2)c([N+](=O)[O-])n1 [Compound 74, 1-methyl-3-nitro-4-pyrazolecarboxylic acid, 5-nitrofurfurylidene hydrazide] |  |  |  |  |  |  |  | 1.56 µg/mL (≈ 5.06 µM) | 12.5 µg/mL (≈ 40.6 µM) | 0.39 µg/mL (≈ 1.27 µM) | 50 µg/mL (≈ 162 µM) | 0.78 µg/mL (≈ 2.53 µM) | 6.25 µg/mL (≈ 20.3 µM) |  |
